Values belong to the compound of their own block, whether it stands above or below them.
Columns and labels:
[1] = biological target: Cyclin-dependent kinase 2 (Homo sapiens, UniProt P24941); experiment: Selectivity interaction (KinomeScan (DiscoverX)) EUB0000618a CDK2; conditions: at 10 µM
[2] = biological target: T1, Phosphatidylinositol 4,5-bisphosphate 3-kinase catalytic subunit delta isoform (Homo sapiens) (UniProt O00329); experiment: Selectivity interaction (Kinase panel (KiNativ target engagement assay in Jurkat cells)) EUB0001635a PIK3CD; assay type: cell-based; conditions: Selectivity number of off-targets 0.0, Selectivity number of targets 233.0, Source Knowledge https://www.sciencedirect.com/science/article/pii/S2451945619300674?via%3Dihub, at 1 µM
T1 sequence (whole entry): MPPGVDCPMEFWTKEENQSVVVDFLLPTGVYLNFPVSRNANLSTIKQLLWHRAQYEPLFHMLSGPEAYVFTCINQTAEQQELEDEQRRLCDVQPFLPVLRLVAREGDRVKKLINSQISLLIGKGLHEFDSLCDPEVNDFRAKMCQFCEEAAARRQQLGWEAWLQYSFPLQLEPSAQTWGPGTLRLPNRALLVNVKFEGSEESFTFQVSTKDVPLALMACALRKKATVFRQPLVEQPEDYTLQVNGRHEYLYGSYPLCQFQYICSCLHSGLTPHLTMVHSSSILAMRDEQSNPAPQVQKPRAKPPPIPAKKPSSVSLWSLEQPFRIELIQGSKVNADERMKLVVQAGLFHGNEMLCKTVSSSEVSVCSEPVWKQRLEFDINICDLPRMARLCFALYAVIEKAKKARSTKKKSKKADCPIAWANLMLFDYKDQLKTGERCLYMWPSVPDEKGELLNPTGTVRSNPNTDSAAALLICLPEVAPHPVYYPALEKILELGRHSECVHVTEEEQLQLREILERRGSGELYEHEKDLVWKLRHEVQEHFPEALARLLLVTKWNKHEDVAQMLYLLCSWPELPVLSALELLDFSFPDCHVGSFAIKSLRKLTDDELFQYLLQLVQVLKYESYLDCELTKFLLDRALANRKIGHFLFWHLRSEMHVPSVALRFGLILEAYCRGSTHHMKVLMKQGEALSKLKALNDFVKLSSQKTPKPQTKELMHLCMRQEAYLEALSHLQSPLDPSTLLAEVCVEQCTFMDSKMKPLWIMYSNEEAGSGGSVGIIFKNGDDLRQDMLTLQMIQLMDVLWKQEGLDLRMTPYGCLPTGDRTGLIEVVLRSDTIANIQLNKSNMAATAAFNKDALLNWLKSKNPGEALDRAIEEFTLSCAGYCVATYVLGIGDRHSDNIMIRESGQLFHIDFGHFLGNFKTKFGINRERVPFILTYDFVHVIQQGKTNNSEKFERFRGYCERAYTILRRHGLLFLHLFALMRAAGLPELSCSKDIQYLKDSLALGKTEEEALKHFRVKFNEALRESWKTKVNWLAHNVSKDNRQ

[3] = biological target: T2, Inhibitor of nuclear factor kappa-B kinase subunit beta (Homo sapiens) (UniProt O14920); conditions: at 10 µM
T2 sequence (whole entry): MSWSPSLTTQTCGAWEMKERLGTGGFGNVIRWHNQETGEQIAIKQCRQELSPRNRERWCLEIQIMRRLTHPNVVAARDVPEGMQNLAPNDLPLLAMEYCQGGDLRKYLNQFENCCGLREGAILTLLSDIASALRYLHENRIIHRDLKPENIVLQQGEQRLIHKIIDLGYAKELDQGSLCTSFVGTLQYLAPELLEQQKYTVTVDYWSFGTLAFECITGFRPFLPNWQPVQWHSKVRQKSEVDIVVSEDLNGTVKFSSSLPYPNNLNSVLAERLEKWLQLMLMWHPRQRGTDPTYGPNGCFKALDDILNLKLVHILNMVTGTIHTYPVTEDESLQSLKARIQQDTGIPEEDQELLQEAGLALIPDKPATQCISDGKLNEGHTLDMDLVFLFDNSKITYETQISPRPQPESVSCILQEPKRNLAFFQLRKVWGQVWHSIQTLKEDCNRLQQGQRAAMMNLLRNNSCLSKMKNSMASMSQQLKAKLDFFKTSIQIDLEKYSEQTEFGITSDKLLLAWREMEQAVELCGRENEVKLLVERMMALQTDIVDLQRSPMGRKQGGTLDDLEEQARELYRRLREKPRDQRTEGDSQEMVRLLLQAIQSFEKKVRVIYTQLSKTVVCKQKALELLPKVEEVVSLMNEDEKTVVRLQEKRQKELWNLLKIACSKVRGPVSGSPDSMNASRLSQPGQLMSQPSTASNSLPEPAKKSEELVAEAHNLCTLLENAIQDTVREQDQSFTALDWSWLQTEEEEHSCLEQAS

[4] = biological target: Mitogen-activated protein kinase kinase kinase 9 (Homo sapiens) (UniProt P80192); experiment: Selectivity interaction (Kinase panel (Invitrogen)) EUB0000639a MAP3K9; conditions: at 200 nM
[5] = biological target: Ribosomal protein S6 kinase alpha-3 (Homo sapiens, UniProt P51812); experiment: Selectivity interaction (ProQinase) EUB0000171b RPS6KA3
[6] = biological target: Tyrosine-protein kinase HCK (Homo sapiens) (UniProt P08631); experiment: Selectivity interaction (KinomeScan (DiscoverX)) EUB0000092b HCK; conditions: at 10 µM
[7] = biological target: Serine/threonine-protein kinase MARK1 (Homo sapiens) (UniProt Q9P0L2); experiment: Selectivity interaction (Kinase panel (Z-LYTE Assay)) EUB0001632a MARK1; conditions: at 10 µM
Sequence of Serine/threonine-protein kinase MARK1 (Homo sapiens) (Q9P0L2 whole entry, looked up): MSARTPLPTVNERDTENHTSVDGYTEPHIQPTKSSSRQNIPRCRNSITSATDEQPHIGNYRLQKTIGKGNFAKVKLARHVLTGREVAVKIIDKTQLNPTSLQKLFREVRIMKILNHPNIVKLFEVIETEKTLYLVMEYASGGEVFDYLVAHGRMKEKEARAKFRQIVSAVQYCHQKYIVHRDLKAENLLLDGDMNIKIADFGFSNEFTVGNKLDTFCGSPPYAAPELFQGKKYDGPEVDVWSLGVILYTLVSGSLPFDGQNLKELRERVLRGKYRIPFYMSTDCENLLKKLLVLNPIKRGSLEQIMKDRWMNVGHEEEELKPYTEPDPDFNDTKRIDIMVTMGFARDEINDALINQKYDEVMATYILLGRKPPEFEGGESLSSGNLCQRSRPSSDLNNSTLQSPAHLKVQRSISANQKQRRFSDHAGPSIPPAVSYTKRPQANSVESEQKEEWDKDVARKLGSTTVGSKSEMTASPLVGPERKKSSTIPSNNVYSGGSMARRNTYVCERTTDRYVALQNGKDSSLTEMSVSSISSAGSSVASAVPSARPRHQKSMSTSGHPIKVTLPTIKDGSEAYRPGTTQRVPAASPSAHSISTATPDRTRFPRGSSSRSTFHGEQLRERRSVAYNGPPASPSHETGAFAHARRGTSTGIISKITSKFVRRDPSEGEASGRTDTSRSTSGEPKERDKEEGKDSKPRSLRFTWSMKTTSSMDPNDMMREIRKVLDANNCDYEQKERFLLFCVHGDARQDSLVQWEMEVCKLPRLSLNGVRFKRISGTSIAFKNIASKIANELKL

Sequence of Ribosomal protein S6 kinase alpha-3 (P51812 whole entry): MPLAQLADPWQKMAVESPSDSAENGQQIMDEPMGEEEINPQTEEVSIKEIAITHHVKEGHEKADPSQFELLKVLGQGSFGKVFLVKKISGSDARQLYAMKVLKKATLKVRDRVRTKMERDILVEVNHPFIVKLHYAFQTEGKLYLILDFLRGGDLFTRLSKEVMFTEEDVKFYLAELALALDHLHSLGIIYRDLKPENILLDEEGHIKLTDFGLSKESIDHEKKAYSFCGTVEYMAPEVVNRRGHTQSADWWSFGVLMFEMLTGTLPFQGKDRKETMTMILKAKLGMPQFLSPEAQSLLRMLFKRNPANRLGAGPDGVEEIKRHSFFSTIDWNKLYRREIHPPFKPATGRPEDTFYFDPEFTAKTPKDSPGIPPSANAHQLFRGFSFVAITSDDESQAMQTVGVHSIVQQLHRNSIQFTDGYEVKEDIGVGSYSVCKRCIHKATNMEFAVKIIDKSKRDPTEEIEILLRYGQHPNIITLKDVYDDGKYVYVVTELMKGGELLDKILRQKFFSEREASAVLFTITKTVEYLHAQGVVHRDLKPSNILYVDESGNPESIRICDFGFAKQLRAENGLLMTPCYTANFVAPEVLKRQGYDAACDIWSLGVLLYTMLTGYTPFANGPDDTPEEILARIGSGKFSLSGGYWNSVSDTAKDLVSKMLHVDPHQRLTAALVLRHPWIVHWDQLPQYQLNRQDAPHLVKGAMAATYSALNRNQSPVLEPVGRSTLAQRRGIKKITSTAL
Sequence of Tyrosine-protein kinase HCK (Homo sapiens) (P08631 2-526 limits assumed): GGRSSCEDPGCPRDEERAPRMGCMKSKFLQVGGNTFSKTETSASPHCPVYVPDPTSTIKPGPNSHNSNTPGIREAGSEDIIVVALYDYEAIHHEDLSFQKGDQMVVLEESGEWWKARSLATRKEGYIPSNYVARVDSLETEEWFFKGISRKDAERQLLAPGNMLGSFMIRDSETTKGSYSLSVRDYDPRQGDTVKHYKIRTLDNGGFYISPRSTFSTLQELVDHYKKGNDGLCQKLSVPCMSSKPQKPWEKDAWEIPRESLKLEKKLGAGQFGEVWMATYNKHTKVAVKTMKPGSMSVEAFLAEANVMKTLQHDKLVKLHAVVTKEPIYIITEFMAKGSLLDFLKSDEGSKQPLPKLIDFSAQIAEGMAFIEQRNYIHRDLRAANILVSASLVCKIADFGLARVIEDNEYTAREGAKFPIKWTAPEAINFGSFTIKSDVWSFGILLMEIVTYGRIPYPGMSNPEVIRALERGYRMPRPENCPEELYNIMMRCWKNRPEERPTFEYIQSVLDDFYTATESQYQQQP
Sequence of Mitogen-activated protein kinase kinase kinase 9 (Homo sapiens) (P80192 whole entry, looked up): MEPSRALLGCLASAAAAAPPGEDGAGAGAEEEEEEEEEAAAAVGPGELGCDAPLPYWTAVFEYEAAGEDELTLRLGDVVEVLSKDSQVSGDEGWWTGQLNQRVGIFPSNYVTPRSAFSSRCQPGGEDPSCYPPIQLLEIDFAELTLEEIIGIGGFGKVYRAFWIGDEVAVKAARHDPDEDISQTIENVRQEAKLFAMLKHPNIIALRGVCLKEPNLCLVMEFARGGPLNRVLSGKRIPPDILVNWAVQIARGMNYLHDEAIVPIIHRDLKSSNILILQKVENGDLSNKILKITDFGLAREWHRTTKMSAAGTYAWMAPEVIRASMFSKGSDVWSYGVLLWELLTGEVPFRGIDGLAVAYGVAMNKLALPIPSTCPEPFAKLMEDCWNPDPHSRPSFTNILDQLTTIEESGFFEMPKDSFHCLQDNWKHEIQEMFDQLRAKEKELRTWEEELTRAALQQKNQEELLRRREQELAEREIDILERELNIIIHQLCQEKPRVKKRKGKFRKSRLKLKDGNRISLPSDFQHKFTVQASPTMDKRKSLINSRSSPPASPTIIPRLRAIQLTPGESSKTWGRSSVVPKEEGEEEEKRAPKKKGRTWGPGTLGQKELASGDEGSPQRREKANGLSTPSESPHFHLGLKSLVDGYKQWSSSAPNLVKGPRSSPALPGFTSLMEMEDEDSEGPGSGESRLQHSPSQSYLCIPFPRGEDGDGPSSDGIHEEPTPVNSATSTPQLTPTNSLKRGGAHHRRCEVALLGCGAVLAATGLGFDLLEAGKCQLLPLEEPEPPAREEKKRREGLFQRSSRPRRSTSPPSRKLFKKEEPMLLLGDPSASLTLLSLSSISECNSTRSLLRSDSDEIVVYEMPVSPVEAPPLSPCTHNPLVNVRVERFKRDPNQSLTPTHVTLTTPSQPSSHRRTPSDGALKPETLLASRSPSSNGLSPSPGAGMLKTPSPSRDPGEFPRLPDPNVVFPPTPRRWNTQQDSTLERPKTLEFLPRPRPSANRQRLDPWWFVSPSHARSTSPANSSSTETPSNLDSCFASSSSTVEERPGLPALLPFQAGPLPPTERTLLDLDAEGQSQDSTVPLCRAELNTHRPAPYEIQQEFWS

SMILES: O[C@H]1CC[C@H](Nc2ncc3nc(Nc4c(F)cc(F)cc4F)n([C@H]4CCOC4)c3n2)CC1
% of control [1]: 100%

SMILES: C=CC(=O)Nc1ccc(C(=O)Nc2[nH]nc3c2CN(C(=O)N[C@H](CN(C)C)c2ccccc2)C3(C)C)cc1
% of engagement [2]: -6.8%

SMILES: Cc1cc([C@@H](C)Nc2ccccc2C(=O)O)c2nc(N3CCOCC3)cc(=O)n2c1 [AZD-6482]
% of control [3]: 90%

% of inhibition [4]: 5.9%
SMILES: CC[C@@H]1[C@H](F)C(=O)N[C@@H]1COc1nccc2cc(C(N)=O)c(OC)cc12 [ZIMLOVISERTIB]

% of control ([5]; at 1 µM): 81% | % of control ([5]; at 5 µM): 58%
SMILES: C=CC(=O)Nc1cccc(C(=O)Nc2ccc(Nc3cc(-c4[nH]c(SC)nc4C)ccn3)cc2)c1

SMILES: CCC(=O)N1CCN(c2ccc(-n3c(=O)ccc4cnc5ccc(-c6cnc7ccccc7c6)cc5c43)cc2C(F)(F)F)CC1
% of control [6]: 77%

% of control [7]: 3.94%
SMILES: Cn1cc(-n2cnc3c(NCc4nc5cc(Cl)c(Cl)cc5[nH]4)nc(N4CCOCC4)nc32)cn1

From ChEMBL document CHEMBL5465560, “Selectivity Literature for EUbOPEN Chemogenomic Library” (2024)
